Experimental data as given in patent US20150105252A1, “SUBSTITUTED PYRAZOLES AS HERBICIDES” (E I DU PONT DE NEMOURS AND COMPANY, priority 2013, published 2015).

Assays:
barnyardgrass [1] = experiment: Test B flood; assay type: in vivo, Echinochloa crus-galli; conditions: 250 g ai/ha, visual rating on 0 to 100 scale (0 no effect, 100 complete control), 13 to 15 days
In short: (§1)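 2-leaf plants; pots flooded 3 cm over soil; compound added to paddy water, depth kept constant. Greenhouse 13–15 d. Visual rating vs controls, 0–100 scale (100 = complete control); dash = no result.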

Italian ryegrass [2] = experiment: Test A preemergence; assay type: in vivo, Lolium multiflorum
From the text: (§2) Seeds of plant species selected from barnyardgrass (Echinochloa crus-galli), kochia (Kochia scoparia), common ragweed (Ambrosia elation), Italian ryegrass (Lolium multiflorum), crabgrass, large (large crabgrass, Digitaria sanguinalis), foxtail, giant (giant foxtail, Setaria faberii), morningglory (Ipomoea spp.), pigweed (redroot pigweed, Amaranthus retroflexus), velvetleaf (Abutilon theophrasti), wheat (Triticum aestivum), and corn (Zea mays) were planted into a blend of loam soil and sand and treated preemergence with a directed soil spray using test chemicals formulated in a non-phytotoxic solvent mixture which included a surfactant.
(§3) At the same time, plants selected from these crop and weed species and also blackgrass (Alopecurus myosuroides), and galium (catchweed bedstraw, Galium aparine) were planted in pots containing the same blend of loam soil and sand and treated with postemergence applications of test chemicals formulated in the same manner. Plants ranged in height from 2 to 10 cm and were in the one- to two-leaf stage for the postemergence treatment. Treated plants and untreated controls were maintained in a greenhouse for approximately 10 days, after which time all treated plants were compared to untreated controls and visually evaluated for injury. Plant response ratings, summarized in Table A, are based on a 0 to 100 scale where 0 is no effect and 100 is complete control. A dash (-) response means no test result.

kochia [3] = experiment: Test A postemergence; assay type: in vivo, Kochia scoparia
From the text: as §2, §3

blackgrass = experiment: Test A postemergence; assay type: in vivo, Alopecurus myosuroides
In short: (§4)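 Visual injury rating, 0–100 (0 no effect, 100 complete control), vs untreated controls ~10 days after treatment in greenhouse. Pre: directed soil spray on seeded loam/sand. Post: 2–10 cm plants, 1–2 leaf stage. Formulation: non-phytotoxic solvent mix + surfactant.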

kochia [4] = experiment: Test A preemergence; assay type: in vivo, Kochia scoparia
From the text: as §2, §3

common ragweed [5] = experiment: Test A postemergence; assay type: in vivo, Ambrosia elation
In short: as §4

pigweed [6] = experiment: Test A postemergence; assay type: in vivo, Amaranthus retroflexus
In short: as §4

wheat = experiment: Test A postemergence; assay type: in vivo, Triticum aestivum
In short: as §4

pigweed [7] = experiment: Test A preemergence; assay type: in vivo, Amaranthus retroflexus; conditions: preemergence
In short: as §4

corn = experiment: Test A postemergence; assay type: in vivo, Zea mays
In short: as §4

foxtail, giant [8] = experiment: Test A preemergence; assay type: in vivo, Setaria faberii; conditions: preemergence
In short: as §4

ducksalad = experiment: Test B flood; assay type: in vivo, Heteranthera limosa; conditions: 250 g ai/ha, visual rating on 0 to 100 scale (0 no effect, 100 complete control), 13 to 15 days
In short: as §1

sedge, umbrella = experiment: Test B flood; assay type: in vivo, Cyperus difformis; conditions: 250 g ai/ha, visual rating on 0 to 100 scale (0 no effect, 100 complete control), 13 to 15 days
In short: as §1

Italian ryegrass [9] = experiment: Test A postemergence; assay type: in vivo, Lolium multiflorum
In short: as §4

barnyardgrass [10] = experiment: Test A postemergence; assay type: in vivo, Echinochloa crus-galli
In short: as §4

common ragweed [11] = experiment: Test A preemergence; assay type: in vivo, Ambrosia elation
In short: as §4

barnyardgrass [12] = experiment: Test A preemergence; assay type: in vivo, Echinochloa crus-galli; conditions: preemergence
In short: as §4

foxtail, giant [13] = experiment: Test A postemergence; assay type: in vivo, Setaria faberii
In short: as §4

rice = experiment: Test B flood; assay type: in vivo, Oryza sativa; conditions: 250 g ai/ha, visual rating on 0 to 100 scale (0 no effect, 100 complete control), 13 to 15 days
In short: as §1

galium = experiment: Test A postemergence; assay type: in vivo, Galium aparine
From the text: as §2, §3

[14] = 125 g ai/ha, visual injury, 0 to 100 scale, approx. 10 days
[15] = 500 g ai/ha, visual injury after approx. 10 days, 0 to 100 scale (0 no effect, 100 complete control)
[16] = Postemergence, 500 g ai/ha, 0 to 100 scale (0 no effect, 100 complete control)
[17] = postemergence, 125 g ai/ha, about 10 days, visual rating on 0 to 100 scale (0 no effect, 100 complete control)

CCCNC(=O)c1cc(CC)n(Cc2cc(OC(F)F)nn2C)n1 [Compound 134]
Plant response rating, Barnyardgrass (barnyardgrass [1]): 0 | Italian Ryegrass plant response rating (Italian ryegrass [2]; [14]): 0 | Italian Ryegrass plant response rating (Italian ryegrass [2]; [15]): 10 | Kochia plant response rating (kochia [3]; [16]): 90 | Kochia plant response rating (kochia [3]; [17]): 60 | Blackgrass plant response rating (blackgrass; [16]): 50 | Blackgrass plant response rating (blackgrass; [17]): 10 | Kochia plant response rating (kochia [4]; [14]): 80 | Kochia plant response rating (kochia [4]; [15]): 100 | Common Ragweed plant response rating (common ragweed [5]; [16]): 30 | Common Ragweed plant response rating (common ragweed [5]; [17]): 20 | Pigweed plant response rating (pigweed [6]; [16]): 90 | Pigweed plant response rating (pigweed [6]; [17]): 40 | Wheat plant response rating (wheat; [16]): 10 | Wheat plant response rating (wheat; [17]): 0 | Pigweed plant response rating (pigweed [7]; [14]): 20 | Pigweed plant response rating (pigweed [7]; [15]): 100 | Corn plant response rating (corn; [16]): 30 | Corn plant response rating (corn; [17]): 10 | Foxtail, Giant plant response rating (foxtail, giant [8]; [14]): 20 | Foxtail, Giant plant response rating (foxtail, giant [8]; [15]): 100 | Plant response rating, Ducksalad (ducksalad): 0 | Plant response rating, Sedge, Umbrella (sedge, umbrella): 0 | Italian Ryegrass plant response rating (Italian ryegrass [9]; [16]): 10 | Italian Ryegrass plant response rating (Italian ryegrass [9]; [17]): 0 | Barnyardgrass plant response rating (barnyardgrass [10]; [16]): 30 | Barnyardgrass plant response rating (barnyardgrass [10]; [17]): 10 | Common Ragweed plant response rating (common ragweed [11]; [14]): 10 | Common Ragweed plant response rating (common ragweed [11]; [15]): 80 | Barnyardgrass plant response rating (barnyardgrass [12]; [14]): 0 | Barnyardgrass plant response rating (barnyardgrass [12]; [15]): 90 | Foxtail, Giant plant response rating (foxtail, giant [13]; [16]): 70 | Foxtail, Giant plant response rating (foxtail, giant [13]; [17]): 10 | Plant response rating, Rice (rice): 0 | Galium plant response rating (galium; [16]): 70 | Galium plant response rating (galium; [17]): 30

CCCCNC(=O)c1cc(CC)n(Cc2cc(OC(F)F)nn2C)n1 [Compound 135]
Plant response rating, Barnyardgrass (barnyardgrass [1]): 0 | Italian Ryegrass plant response rating (Italian ryegrass [2]; [14]): 0 | Italian Ryegrass plant response rating (Italian ryegrass [2]; [15]): 0 | Kochia plant response rating (kochia [3]; [16]): 100 | Kochia plant response rating (kochia [3]; [17]): 70 | Blackgrass plant response rating (blackgrass; [16]): 20 | Blackgrass plant response rating (blackgrass; [17]): 0 | Kochia plant response rating (kochia [4]; [14]): 70 | Kochia plant response rating (kochia [4]; [15]): 100 | Common Ragweed plant response rating (common ragweed [5]; [16]): 30 | Common Ragweed plant response rating (common ragweed [5]; [17]): 10 | Pigweed plant response rating (pigweed [6]; [16]): 40 | Pigweed plant response rating (pigweed [6]; [17]): 10 | Wheat plant response rating (wheat; [16]): 0 | Wheat plant response rating (wheat; [17]): 0 | Pigweed plant response rating (pigweed [7]; [14]): 0 | Pigweed plant response rating (pigweed [7]; [15]): 50 | Corn plant response rating (corn; [16]): 20 | Corn plant response rating (corn; [17]): 10 | Foxtail, Giant plant response rating (foxtail, giant [8]; [14]): 0 | Foxtail, Giant plant response rating (foxtail, giant [8]; [15]): 50 | Plant response rating, Ducksalad (ducksalad): 0 | Plant response rating, Sedge, Umbrella (sedge, umbrella): 0 | Italian Ryegrass plant response rating (Italian ryegrass [9]; [16]): 0 | Italian Ryegrass plant response rating (Italian ryegrass [9]; [17]): 0 | Barnyardgrass plant response rating (barnyardgrass [10]; [16]): 10 | Barnyardgrass plant response rating (barnyardgrass [10]; [17]): 10 | Common Ragweed plant response rating (common ragweed [11]; [14]): 0 | Common Ragweed plant response rating (common ragweed [11]; [15]): 0 | Barnyardgrass plant response rating (barnyardgrass [12]; [14]): 0 | Barnyardgrass plant response rating (barnyardgrass [12]; [15]): 0 | Foxtail, Giant plant response rating (foxtail, giant [13]; [16]): 10 | Foxtail, Giant plant response rating (foxtail, giant [13]; [17]): 0 | Plant response rating, Rice (rice): 0 | Galium plant response rating (galium; [16]): 50 | Galium plant response rating (galium; [17]): 20

CCc1cc(C(=O)NC(C)C)nn1Cc1cc(OC(F)F)nn1C [Compound 137]
Plant response rating, Barnyardgrass (barnyardgrass [1]): 0 | Italian Ryegrass plant response rating (Italian ryegrass [2]; [14]): 0 | Italian Ryegrass plant response rating (Italian ryegrass [2]; [15]): 40 | Kochia plant response rating (kochia [3]; [16]): 90 | Kochia plant response rating (kochia [3]; [17]): 50 | Blackgrass plant response rating (blackgrass; [16]): 50 | Blackgrass plant response rating (blackgrass; [17]): 10 | Kochia plant response rating (kochia [4]; [14]): 30 | Kochia plant response rating (kochia [4]; [15]): 100 | Common Ragweed plant response rating (common ragweed [5]; [16]): 30 | Common Ragweed plant response rating (common ragweed [5]; [17]): 10 | Pigweed plant response rating (pigweed [6]; [16]): 80 | Pigweed plant response rating (pigweed [6]; [17]): 50 | Wheat plant response rating (wheat; [16]): 10 | Wheat plant response rating (wheat; [17]): 0 | Pigweed plant response rating (pigweed [7]; [14]): 60 | Pigweed plant response rating (pigweed [7]; [15]): 100 | Corn plant response rating (corn; [16]): 30 | Corn plant response rating (corn; [17]): 10 | Foxtail, Giant plant response rating (foxtail, giant [8]; [14]): 20 | Foxtail, Giant plant response rating (foxtail, giant [8]; [15]): 80 | Plant response rating, Ducksalad (ducksalad): 30 | Plant response rating, Sedge, Umbrella (sedge, umbrella): 30 | Italian Ryegrass plant response rating (Italian ryegrass [9]; [16]): 20 | Italian Ryegrass plant response rating (Italian ryegrass [9]; [17]): 0 | Barnyardgrass plant response rating (barnyardgrass [10]; [16]): 60 | Barnyardgrass plant response rating (barnyardgrass [10]; [17]): 0 | Common Ragweed plant response rating (common ragweed [11]; [14]): 10 | Common Ragweed plant response rating (common ragweed [11]; [15]): 100 | Barnyardgrass plant response rating (barnyardgrass [12]; [14]): 10 | Barnyardgrass plant response rating (barnyardgrass [12]; [15]): 70 | Foxtail, Giant plant response rating (foxtail, giant [13]; [16]): 70 | Foxtail, Giant plant response rating (foxtail, giant [13]; [17]): 10 | Plant response rating, Rice (rice): 0 | Galium plant response rating (galium; [16]): 80 | Galium plant response rating (galium; [17]): 50
